Reference: patent US8088951B2, “Epigenetic mechanisms re-establish access to long-term memory after neuronal loss” (Massachusetts Institute of Technology, priority 2006, dated 2012)

Test system: CK-p25 Tg mice
Assay: Recovery of long-term fear memories in CK-p25 Tg mice
Assay type: in vivo
Conditions: CK-p25 Tg mice trained, 4 weeks rest, 6 weeks p25, then 1.2 g/kg daily for 4 weeks; P=0.0496
Experimental: The effect of HDAC inhibition on the recovery of inaccessible long-term memories was evaluated. Eleven month old CK-p25 Tg mice were trained in the fear conditioning paradigm and returned to their home cages for 4 weeks. Subsequently p25 was induced for 6 weeks before the mice were injected with either saline (vehicle, n=12) or SB (1.2 g/kg, n=14) for 4 weeks (daily). […] (FIG. 4f). […] Thus chronic injection of SB led to the recovery of memories in CK-p25 Tg mice that had developed severe neuronal loss.

CCCC(=O)[O-].[Na+] [SB, sodiumbutyrate]
freezing behavior in long-term memory test: performed significantly better than vehicle injected CK-p25 Tg mice
